36 compounds from patent US20240208965A1, “HETEROARYL ALKYLENE SUBSTITUTED 2-OXOQUINAZOLINE DERIVATIVES AS METHIONINE ADENOSYLTRANSFERASE 2A INHIBITORS” (IDEAYA BIOSCIENCES, INC., priority 2020, published 2024) can be followed below.

SMILES strings stand for the structures.

The target of the first assay is T1, Human MAT2A (Homo sapiens, UniProt P31153).
T1 construct: Human MAT2A: Cepter, amino acids 1-395 Clone ID 334, lot 00023-148; purchased Cepter clone ID 334, lot 00023-148
T1 sequence (P31153 whole entry, the tested form may be a part): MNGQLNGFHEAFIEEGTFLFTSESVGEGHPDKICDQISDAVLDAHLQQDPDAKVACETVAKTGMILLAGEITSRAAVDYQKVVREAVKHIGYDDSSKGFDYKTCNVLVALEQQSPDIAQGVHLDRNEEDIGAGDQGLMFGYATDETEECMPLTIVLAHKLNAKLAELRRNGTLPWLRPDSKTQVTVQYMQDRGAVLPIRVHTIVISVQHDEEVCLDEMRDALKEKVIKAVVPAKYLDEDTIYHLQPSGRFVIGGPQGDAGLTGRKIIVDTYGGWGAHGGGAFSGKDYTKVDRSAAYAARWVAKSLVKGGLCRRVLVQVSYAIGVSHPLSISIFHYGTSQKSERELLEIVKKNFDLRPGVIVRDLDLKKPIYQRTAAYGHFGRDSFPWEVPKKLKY
The assay can be described thus: Phosphate Sensor Fluorescence Assay (Biologic Example B). Format: biochemical. To be noted: MAT2A inhibition, Biological Example B procedure (Compounds 1.029-1.070); 5.8 nM MAT2A, 500 uM L-methionine, 500 uM ATP. The method, then: The ability of the compound of present disclosure to inhibit MAT2A enzyme was determined using a Phosphate Sensor Fluorescence Assay described below.
Biologic Example B. Phosphate Sensor Fluorescence Assay
MAT2A enzyme is incubated with a test compound in DMSO or DMSO and its substrates (L-methionine and ATP) in a microtiter plate. The enzymatic reaction is stopped by the addition of Working Phosphate Sensor Mixture. The plate is analyzed for fluorescence at 450 nm. The high control (DMSO with enzyme and its substrates) gives high fluorescence which represents no inhibition of enzymatic activity while the low control (DMSO with MAT2A substrates and no enzyme) gives low fluorescence which represents full inhibition of enzymatic activity.
• Human MAT2A: Cepter, amino acids 1-395 Clone ID 334, lot 00023-148 • Tris, pH 7.5: Invitrogen cat #15567-027 • KCl: Ambion cat #AM9640G • MgCl2: Ambion cat #AM9530G • Brij-35: Sigma cat B4184-10ML • DTT: Goldbio cat #DTT100 • BGG: Sigma cat #G5009-25G • PNP: Novus Biologicals cat #NBP1-50872 • 7-MEG: Cayman Chemical cat #15988 • L-Methionine: JTBaker P/N 2085-05 • ATP: Promega P/N V915B • Phosphate Sensor: Invitrogen cat #PV4407 • EDTA: Life Tech cat #15575-038 • Assay plate: 384-well black polypropylene plate: Corning P/N 3573
• Assay Buffer: 50 mM Tris, pH 7.5/50 mM KCl/10 mM MgCl2/0.01% Brij-35/1 mM DTT/0.01% BGG/40 nM PNP/6 uM 7-MEG • MAT2A: 5.8 nM MAT2A (1-395), Cepter, clone ID 334, lot 00023-148 before the addition of Working Phosphate Sensor Mixture • L-methionine: 500 uM before the addition of Working Phosphate Sensor Mixture • ATP: 500 uM before the addition of Working Phosphate Sensor Mixture
For the assay, a mixture of 1 mM L-methionine/1 mM ATP (2× final pre-stopped concentration) in assay buffer; MAT2A (2× final pre-stopped concentration) in Assay Buffer and Working Phosphate Sensor Mixture (1.5 uM Phosphate Sensor/30 mM EDTA in Assay Buffer, which is 3× final concentrations) were prepared. Test compounds or DMSO were added to the appropriate well using a Beckman Coulter Echo 550 acoustic liquid handler. 10 μL/well of Assay Buffer was added to the wells corresponding to the negative control and 10 μL/well of MAT2A was added to all the wells except for those corresponding to the negative control. After incubating the plate at room temperature for 15 minutes, 10 μL/well of the 1 mM L-methionine/1 mM ATP mixture was added to all wells. The plate was centrifuged at 1000 rpm for 1 minute and then incubated at room temperature for 1 hour. 10 μL of the Working Phosphate Sensor Mixture was added to all wells and the plate was centrifuged at 1000 rpm for 1 minute. The plate was read for fluorescence at 450 nm after exciting at 430 nm on a Tecan Spark microplate reader.
Percent inhibition was calculated in Chemical and Biological Information System (CBIS), (ChemInnovation Software Inc.). Curves were fitted by CBIS as % inhibition vs. log [compound concentration] using a 4-parameter inhibition model.
Fit=(A+((B−A)/(1+((C/x)^D))))
Compounds 1.001-1.028 were tested using the procedure described in Bioogical Example A, described above. Compounds 1.029-1.070 were tested using the procedure described in Biological Example B, described above.
One may read the IC50 as the midpoint of a concentration-inhibition curve. High values mean weaker potency in that assay, low ones greater potency in that assay. On to `CC(c1cc[nH]n1)n1c(=O)nc(N(C)C)c2ccc(Cl)cc21` (racemic) [1.062, 1-(1-(1H-pyrazol-3-yl)ethyl)-7-chloro-4-(dimethylamino)quinazolin-2(1H)-one], for which the IC50 was below 0.01 µM.
For the compound `CCN(C)c1nc(=O)n([C@@H](C)c2cnc[nH]2)c2cc(C(F)(F)F)ccc12` (single isomer, unassigned) [1.035], the IC50 was 0.01 to 0.2 µM.
Consider `CCN(C)c1nc(=O)n([C@H](C)c2cnc[nH]2)c2cc(C(F)(F)F)ccc12` (single isomer, unassigned) [1.036], for which the IC50 was 0.01 to 0.2 µM.
`CC(C)N(C)c1nc(=O)n([C@@H](C)c2cnc[nH]2)c2cc(C(F)(F)F)ccc12` (single isomer, unassigned) [1.037] showed an IC50 of 0.01 to 0.2 µM.
For `CC(C)N(C)c1nc(=O)n([C@H](C)c2cnc[nH]2)c2cc(C(F)(F)F)ccc12` (single isomer, unassigned) [1.038], the IC50 was 0.01 to 0.2 µM.
As for `C[C@H](c1cnc[nH]1)n1c(=O)nc(N2CCC2)c2ccc(Br)cc21` (single isomer, unassigned) [1.039], the IC50 is 0.2 to 0.5 µM.
`C[C@@H](c1cnc[nH]1)n1c(=O)nc(N2CCC2)c2ccc(Br)cc21` (single isomer, unassigned) [1.040] showed an IC50 of 0.01 to 0.2 µM.
`CC[C@H](c1cnc[nH]1)n1c(=O)nc(N(C)C)c2ccc(C(F)(F)F)cc21` (single isomer, unassigned) [1.041] returned an IC50 of 0.01 to 0.2 µM.
`CC[C@@H](c1cnc[nH]1)n1c(=O)nc(N(C)C)c2ccc(C(F)(F)F)cc21` (single isomer, unassigned) [1.042] returned an IC50 of 0.2 to 0.5 µM.
Regarding `C[C@H](c1cnc[nH]1)n1c(=O)nc(N(C)C)c2ccc(Br)cc21` (single isomer, unassigned) [1.043], the IC50 lay in the range of 0.01 to 0.2 µM.
The compound `C[C@@H](c1cnc[nH]1)n1c(=O)nc(N(C)C)c2ccc(Br)cc21` (single isomer, unassigned) [1.044] returned an IC50 below 0.01 µM.
In the case of `C[C@H](c1cnc[nH]1)n1c(=O)nc(N(C)C)c2ccc(Cl)cc21` (single isomer, unassigned) [1.047], the IC50 was below 0.01 µM.
As to `C[C@@H](c1cnc[nH]1)n1c(=O)nc(N(C)C)c2ccc(Cl)cc21` (single isomer, unassigned) [1.048], the IC50 was 0.01 to 0.2 µM.
Regarding `C[C@H](c1cc[nH]n1)n1c(=O)nc(N(C)C)c2ccc(Cl)cc21` (single isomer, unassigned) [1.059], the IC50 is below 0.01 µM.
As for `C[C@H](c1nc[nH]n1)n1c(=O)nc(N(C)C)c2ccc(Cl)cc21` (single isomer, unassigned) [1.060], the IC50 fell in the range of 0.01 to 0.2 µM.
Take `C[C@@H](c1nc[nH]n1)n1c(=O)nc(N(C)C)c2ccc(Cl)cc21` (single isomer, unassigned) [1.061]: the 50% inhibitory concentration (IC50) lay within 0.5 to 1 µM.
As to `CN(C)c1nc(=O)n([C@@H](c2c[nH]cn2)C(F)F)c2nc(C(F)(F)F)ccc12` (single isomer, unassigned) [1.063], the IC50 fell in the range of 1 to 10 µM.
As to `CN(C)c1nc(=O)n([C@H](c2c[nH]cn2)C(F)F)c2nc(C(F)(F)F)ccc12` (single isomer, unassigned) [1.064], the IC50 was in the range of 0.2 to 0.5 µM.
For `C[C@H](c1cc[nH]n1)n1c(=O)nc(N)c2ccc(Cl)cc21` (single isomer, unassigned) [1.069], the IC50 was in the range of 0.01 to 0.2 µM.
As to `C[C@@H](c1cc[nH]n1)n1c(=O)nc(N)c2ccc(Cl)cc21` (single isomer, unassigned) [1.070], the IC50 lay within 0.2 to 0.5 µM.
`CNc1nc(=O)n(Cc2cnsc2)c2cc(C(F)(F)F)ccc12` [1.029, 1-(Isothiazol-4-ylmethyl)-4-(methylamino)-7-(trifluoromethyl)quinazolin-2(1H)-one] came in with an IC50 of 1 to 10 µM.
`CN(C)c1nc(=O)n(Cc2cnc[nH]2)c2cc(C(F)(F)F)ccc12` [1.030, 1-((1H-Imidazol-5-yl)methyl)-4-(dimethylamino)-7-(trifluoromethyl)quinazolin-2(1H)-one] showed an IC50 of 0.01 to 0.2 µM.
Same read-out and setting: under `CC(c1c[nH]cn1)n1c(=O)nc(N(C)C)c2ccc(Br)cc21` (stereo not drawn) [1.031, 1-(1-(1H-imidazol-4-yl)ethyl)-7-bromo-4-(dimethylamino)quinazolin-2(1H)-one] stands 0.01 to 0.2 µM; under `CC(c1c[nH]cn1)n1c(=O)nc(N2CCC2)c2ccc(Br)cc21` (stereo not drawn) [1.032, 1-(1-(1H-imidazol-4-yl)ethyl)-4-(azetidin-1-yl)-7-bromoquinazolin-2(1H)-one], 0.01 to 0.2 µM.
`CCC(c1cnc[nH]1)n1c(=O)nc(N(C)C)c2ccc(C(F)(F)F)cc21` (stereo not drawn) [1.033, 1-(1-(1H-imidazol-5-yl)propyl)-4-(dimethylamino)-7-(trifluoromethyl)quinazolin-2(1H)-one] had an IC50 of 0.2 to 0.5 µM.
For `CN(C)c1nc(=O)n(Cc2cnc[nH]2)c2cc(Cl)ccc12` [1.034, 1-((1H-imidazol-5-yl)methyl)-7-chloro-4-(dimethylamino)quinazolin-2(1H)-one], the IC50 lay in the range of 0.2 to 0.5 µM.
As for `CN(C)c1nc(=O)n(C(c2cnc[nH]2)C2CC2)c2cc(C(F)(F)F)ccc12` (stereo not drawn) [1.045, 1-(Cyclopropyl(1H-imidazol-5-yl)methyl)-4-(dimethylamino)-7-(trifluoromethyl)quinazolin-2(1H)-one], the IC50 lay in the range of 0.2 to 0.5 µM.
With `CC(c1cnc[nH]1)n1c(=O)nc(N(C)C)c2ccc(C(F)(F)F)nc21` (stereo not drawn) [1.046, 1-(1-(1H-Imidazol-5-yl)ethyl)-4-(dimethylamino)-7-(trifluoromethyl)pyrido[2,3-d]pyrimidin-2(1H)-one], the IC50 was in the range of 0.01 to 0.2 µM.
As to `Cc1nc[nH]c1Cn1c(=O)nc(N(C)C)c2ccc(C(F)(F)F)cc21` [1.050, 4-(Dimethylamino)-1-((4-methyl-1H-imidazol-5-yl)methyl)-7-(trifluoromethyl)quinazolin-2(1H)-one], the IC50 was in the range of 1 to 10 µM.
For `CN(C)c1nc(=O)n(Cc2nc[nH]n2)c2cc(C(F)(F)F)ccc12` [1.051, 1-((1H-1,2,4-Triazol-3-yl)methyl)-4-(dimethylamino)-7-(trifluoromethyl)quinazolin-2(1H)-one], the IC50 lay within 0.01 to 0.2 µM.
Same read-out and setting: as for `CN(C)c1nc(=O)n(Cc2ccccn2)c2nc(C(F)(F)F)ccc12` [1.052, 4-(Dimethylamino)-1-(pyridin-2-ylmethyl)-7-(trifluoromethyl)pyrido[2,3-d]pyrimidin-2(1H)-one], the figure is 0.01 to 0.2 µM; as for `CN(C)c1nc(=O)n(Cc2cccnc2)c2nc(C(F)(F)F)ccc12` [1.053, 4-(Dimethylamino)-1-(pyridin-3-ylmethyl)-7-(trifluoromethyl)pyrido[2,3-d]pyrimidin-2(1H)one], 1 to 10 µM; as for `CN(C)c1nc(=O)n(Cc2ccncc2)c2nc(C(F)(F)F)ccc12` [1.054, 4-(Dimethylamino)-1-(pyridin-4-ylmethyl)-7-(trifluoromethyl)pyrido[2,3-d]pyrimidin-2(1H)one], 1 to 10 µM.
The compound `CN(C)c1nc(=O)n(Cc2cncn2C)c2cc(C(F)(F)F)ccc12` [1.055, 4-(dimethylamino)-1-((1-methyl-1H-imidazol-5-yl)methyl)-7-(trifluoromethyl)quinazolin-2(1H)-one] came in with an IC50 of 0.2 to 0.5 µM.
`CN(C)c1nc(=O)n(Cc2ccn[nH]2)c2cc(Cl)ccc12` [1.056, 1-((1H-pyrazol-5-yl)methyl)-7-chloro-4-(dimethylamino)quinazolin-2(1H)-one] had an IC50 of 0.01 to 0.2 µM.

Still in this assay, the particulars now being: MAT2A inhibition, Biological Example B procedure; printed as a numeric bound, not a class symbol.
The compound `Cc1ncc(Cn2c(=O)nc(N(C)C)c3ccc(C(F)(F)F)cc32)[nH]1` [1.049, 4-(Dimethylamino)-1-((2-methyl-1H-imidazol-5-yl)methyl)-7-(trifluoromethyl)quinazolin-2(1H)-one] gave an IC50 above 10 µM.
